Assay results from patent publication US20160031909A1, “PORPHYRAZINE OPTICAL AND DUAL OPTICAL/ MR CONTRAST AND THERAPEUTIC AGENTS” (HOFFMAN/BARRETT, LLC, priority 2013, published 2016).
Entries after “also recorded” stand apart in the source; their conditions may differ. Read-outs that look alike come from different tables or passages of the source.

Tests used:
Water solubility = type: physicochemical
Procedure: The pz platform is diol pz 285, which was prepared and activated for nucleophilic substitution by arenesulfonylation to produce bis-tosylate pz 286 as previously described (13). Subsequent nucleophilic substitution of pz 286 with excess sodium azide gave diazide pz 288, which was suitable for conjugation via cycloaddition reactions with the alkyne-functionalized Gd595. (Scheme 1). The use of catalytic copper(II) sulfate in this conjugation reaction partially metallates the pz core. To address this issue, pz 288 either was metallated with ZnCl2 prior to reaction with the alkyne or a stoichiometric amount of the […] catalyst was used to ensure that the pz core was completely cuprated. Standard cycloaddition reaction conditions were subsequently used to conjugate metallated pz diazides with Gd595 to produce Zn-Pz-Gd(III) and Cu-Pz-Gd(III) conjugates, which were isolated by preparative HPLC in 52% and 57% isolated yields, respectively. Trace amounts of Zn-Pz-Gd(III) were transmetallated to Cu-Pz-Gd(III), but this small amount was removed during purification.

[1] = Relaxation time measurements (longitudinal relaxivity r1); type: physicochemical; details: water, 1.41 T (60 MHz), 37° C.
Source text: The efficiency of a contrast agent in reducing the longitudinal relaxation time of water protons is defined in terms as relaxivity (mM^−1 s^−1) (14). It has been predicted by Solomon-Bloembergen-Morgan theory that a slow molecule tumbling of an MRI agent causes an increase in rotational correlation time, Tr, which in turn results in increase in relaxivity (14, 15). A common approach to increase relaxivity by slowing down the molecular tumbling is to attach Gd(III) complexes to a macromolecule through rigid linkages (12,16). The relaxivity of the monomeric DOTA-Gd(III) (DOTA is 1,4,7,10-tetraazacyclododecane-N,N,N″,N″-tetraacetic acid) used in the clinic is shown for comparison (17). […] Both the Zn-Pz-Gd(III) and Cu-Pz-Gd(III) had higher longitudinal relaxivity than DOTAGd(III).
Solutions of M-Pz-Gd(III) (M=Zn, Cu) conjugates were dissolved in 500 μL of filtered, deionized H20 (18.2 MΩ·cm) for T1 acquisition. Relaxation times were measured on a Bruker mq60 NMRanalyzer equipped with Minispec v2.51 Rev.00/NT software (Bruker Biospin, Billerica, Mass., USA) operating at 1.41 T (60 MHz) and 37° C. T1 relaxation times were measured using an inversion recovery pulse sequence (T1—ir_mb) using the following parameters: 4 scans per point, 10 data points for fitting, mono-exponential curve fitting, phase cycling, 10 ms first pulse separation, and a recycle delay and final pulse separation≧5 T1. The gadolinium concentrations of each solution were determined using ICP-MS. The inverse of the longitudinal relaxation time (1/ T1, s^−1) was plotted against gadolinium concentration (mM) and fitted to a straight line with an R^2>0.99. The slope of the fitted line was recorded as the relaxivity, r1.

[2] = Octanol-water partition coefficients by ICP-MS; type: physicochemical; details: 1:1 water:1-octanol, 48 hours, Gd by ICP-MS
Procedure: Octanol-water partition coefficients (log P) were measured by ICP-MS to determine the hydrophilicity of the Pz-Gd(III) conjugates (4d, 18). The hydrophilicity of a molecule dictates cellular permeability where a balance in amphiphilicity is desired for ease of aqueous administration and maximum cellular uptake (19). Cu-Pz-Gd(III) is slightly more hydrophobic than Zn-Pz-Gd(III) and both conjugates are more hydrophobic than DOTA-Gd(III).
DOTA-Gd(I I I), Zn-Pz-Gd(III), and Cu-Pz-Gd(III) (0.5 mg) were dissolved in 1 mL of a 1:1 mixture of water:1-octanol, respectively. After shaking for 30 seconds, these tubes were placed on a rotator for gentle mixing to equilibrate for 48 hours. Gd(III) concentration in each layer was determined by ICP-MS. Partition coefficients were calculated from the equation log P=log(Co/Cw), where log P is the logarithm of the partition coefficient, Co is the concentration of Gd in the 1-octanol layer, and Cw is the concentration of Gd in the water layer.

[3] = system: MDA-MB-231 orthotopic breast tumor; assay: In vivo tumor MRI in orthotopic breast tumor model; parameters: species or system athymic nude mice; details: 0-225 min after tail vein injection; Cu-Pz-Gd(III) 450 nmol (50 mg/kg), DOTA-Gd(III) 900 nmol (25 mg/kg)
Procedure: Cu-Pz-Gd(III) was examined as a contrast agent in vivo in an orthotopic breast tumor model in athymic nude mice. MDA-MB-231 breast tumor cells expressing mCherry fluorescent protein were implanted in the mammary fat pad of mice and tumors were allowed to grow to about 5 mm in diameter at which time mice were treated with 450 nmol (50 mg/kg) Cu-Pz-Gd(III) together with saline treated control mice (FIG. 3A).
In a separate experiment focusing only on short time points (0-225 min), groups of mice (n=3) were treated with Cu-Pz-Gd(III) (450 nmol, 50 mg/kg), DOTA-Gd(I I I) (900 nmol, 25 mg/kg), and saline as a negative control (FIG. 4). Mice were imaged continuously after tail vein injections. […] Regions of interest (ROIs) were defined outside the periphery of tumors, at the inner rim, and at the center.
MDA-MB-231 cells (1×10^6) expressing mCherry fluorescent protein were inoculated subcutaneously (1:1 v/v matrigel:PBS) on the right mammary fat pad. Cells were maintained in DMEM media supplemented with 10% FBS prior to inoculation. The athymic nude mice, Crl:NU(NCr)-Foxnl^nm, were purchased from Charles River, Portage at 5-6 weeks old and 16-18 gram were allowed to acclimate for 5 days. One week post inoculation, each animal was screened for mCherry fluorescence wavelength using the IVIS small animal fluorescence imaging system to verify presence of the tumor.
Mice were anesthetized in an induction chamber with 3% inhaled isoflurane in oxygen, then transferred to an imaging bed with circulating warm water heating system, MRI compatible respiratory monitoring (SA Instruments, Stony Brook, N.Y.) and 1-2% isoflurane delivered via nosecone to maintain a surgical plane of anesthesia with respiratory rate at 90-100 breaths/min Mice were imaged prone with the tumor centered in a 40 mm diameter quadrature volume coil (Bruker Biospec, Billerica, Mass.). An AutoPac automated positioning system was used to reproducibly center the animals in the MRI system.
Mice were positioned in the MRI scanner as described above and localizer images were acquired. T1 maps were acquired using a FAIR-RARE non-selective inversion recovery sequence with static TR (18,000 ms) and TE (6.1 ms), and variable TI (30.5, 100, 200, 300, 500, 600, 700, 800, 900, 1000, 1100, 1200, 1300, 1400, 1600, 2000, 2500, 3000, 3500, 4000, 4500, 5000, and 6000 ms). Imaging parameters were as follows: field of view (FOV)=40×20 mm^2, matrix size(MTX)=512×133 pixels, number of slices=1, slice thickness=1.0 mm, and 1 average (total scan time=5 m 26 s).
Images were acquired at baseline, and 4, 24, and 48 hours after injection of 150 μL of imaging agent via the tail vein. One control animal was injected with saline; the remaining 9 animals were injected with 450 nmol Cu-Pz-Gd(III). Three animals were sacrificed after 4 hour, 24 hour, and 48 hour timepoints, respectively; the organs were collected for ICP-MS (described below) to measure biodistribution.
Mice were positioned in the MRI scanner as described above and localizer images were acquired. To improve signal to noise ratio, reduce respiratory artifacts, and increase tumor coverage, for this study we used a multi slice T1 map acquired using a variable repetition time saturation recovery sequence (RARE-VTR) with static TE (8.2 ms) and variable TR (175, 300, 600, 800, 1200, 2000, 4000 ms). Imaging parameters were as follows: FOV=10×7.5 mm, MTX=80×60, number of axial slices=5, slice thickness=1.0 mm, and 1 average (total scan time=6 min 48 sec). […]

[4] = monomeric DOTA-Gd(III), shown for comparison (ref 17), cited from earlier work

Compound | water solubility (Water solubility) | Ionic r1 ([1]; per Gd(III)) [mM^−1 S^−1] | Molecular r1 ([1]; per molecule (2 Gd(III))) [mM^−1 S^−1] | log P [2] | tumor T1 over time [3] | Molecular r1 ([4]; 1 Gd(III)) [mM^−1 S^−1] | Ionic r1 [4] [mM^−1 S^−1]
Zn[Pz(C17H27N5O7Gd)2]. Pz=18,21-bis(2-(1H-1,2,3-triazole-4-yl) ethoxy)-tris-[1,4-dioxino[g,l,q](2R,3R)-2,3-dimethoxy-2,3-dimethyll 25H,27H-benzo[b]porphyrazine; C17H27N5O7Gd=N-methyl-2-aminoacetamide-4,7,10-tris(carboxymethyl)-1,4,7,10-tetraazacyclododecylgadolinium(III)) [Zn-Pz-Gd(III)] | freely water soluble | 6.9 | 13.8 | −3.13 | – | – | –
O=C([O-])CN1CCN(CC(=O)[O-])CCN(CC(=O)O)CCN(CC(=O)[O-])CC1.[Gd+3] [DOTA-Gd(III), reference compound] | – | – | – | −3.42 | dips transiently but returns quickly to baseline; also recorded: enters the tumor, but is cleared relatively rapidly; also recorded: initial decrease in tumor T1 followed by recovery of signal | 3.1 | 3.1
